Values of other authors in patent US7160580B2, “Organic acids incorporated edible antimicrobial films” (The Board of Trustees for the University of Arkansas, priority 2002, dated 2007).
Where “and” joins values, the source holds several entries; their conditions need not be identical. Equal values may be shown once.

Experiments:
Listeria monocytogens [1] = details: 2% acid rinsed catfish fillets stored at 4° C., up to 5 days
Salmonella montevideo = details: citric acid 0.2 and 0.4% in cellulose based edible film; surface or core tissue of tomatoes; assignment of the two values not stated
Listeria monocytogens [2] = details: lean beef tissue treated with 1.7% lactic acid, stored at 5° C. for 7 days
E. coli 0157:H7 = details: lean beef tissue treated with 1.7% lactic acid, stored at 5° C. for 7 days

SMILES | log reduction in Listeria monocytogens counts (Listeria monocytogens [1]) | log reductions of Salmonella montevideo (Salmonella montevideo) | log reduction Listeria monocytogens (Listeria monocytogens [2]) | log reduction E. coli 0157:H7 (E. coli 0157:H7)
O=C(O)CC(O)(CC(=O)O)C(=O)O [citric acid] | less than one log reduction | 2.18 log and 1.92 log | – | –
Cl [hydrochloric acid] | less than one log reduction | – | – | –
CC(O)C(=O)O (centres unmarked) [lactic acid] | less than one log reduction | – | 2.03 log | 0.91 log
O=C(O)CC(O)C(=O)O (centres unmarked) [malic acid] | less than one log reduction | – | – | –
O=C(O)C(O)C(O)C(=O)O (centres unmarked) [tartaric acid] | less than one log reduction | – | – | –
